Values of other authors as cited in US20090004049A1, “Method of irradiation using process of adding vitamin C” (priority 2007, published 2009).

System: patients with cancer
Settings: 10 g of vitamin C administered to patients with cancer

O=C1O[C@H]([C@@H](O)CO)C(O)=C1O [vitamin C]
increase of survival rate of patients compared with control: 4 times
